Data from the supplement of paper PMC10307832.

Compound: CC1=CN=C(N=C1C2=CNC(=C2)C(=O)N[C@H](CO)C3=CC(=CC=C3)Cl)NC4=C(C=C(C=C4)F)Cl [VX-11e]
Assay: relative viability (nuclei count vs DMSO), 5 days (fraction); higher = more cells survive
Summary of the method: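 Only plates meeting two conditions passed: control CV below 25% and at least one doubling. Lung cancer cell lines, kept overnight at 37 °C in 1536-well plates, were pinned with five library-drug doses (not always all listed) √10 apart on vehicle-anchored plates and grown 5 days without medium change. A one-step fix, permeabilisation and Hoechst stain preceded 4× imaging and MetaXpress nuclear counting. Viability equals treated-well nuclei divided by vehicle-well nuclei, as the median over plates.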

Row | Cell Line | relative viability (0.04 µM) | relative viability (0.1265 µM) | relative viability (0.4 µM) | relative viability (1.265 µM) | relative viability (4 µM)
1 | 201T | 0.971 | 0.985 | 0.883 | 0.691 | 0.951
2 | A549 | 0.98 | 0.868 | 0.806 | 0.671 | 0.122
3 | A-427 | 0.862 | 0.854 | 0.927 | 0.933 | 0.419
4 | ABC-1 | 0.83 | 0.888 | 0.938 | 0.83 | 0.723
5 | BEN | – | 0.903 | 1.03 | 0.662 | 0.782
6 | CAL-12T | 0.955 | 0.942 | 0.964 | 0.715 | 0.376
7 | COR-L23 | 1.17 | 0.92 | 0.975 | 0.778 | 0.358
8 | COR-L 105 | 0.845 | 0.894 | 0.845 | 0.516 | 0.383
9 | Calu-6 | 1.08 | 0.978 | 0.975 | 0.513 | 0.163
10 | ChaGo-K-1 | 0.926 | 0.903 | 0.925 | 1.03 | 0.905
11 | EKVX | 0.906 | 1.03 | 0.953 | 0.898 | 0.489
12 | EMC-BAC-2 | 0.903 | 0.875 | 1.43 | 0.998 | 0.663
13 | EPLC-272H | 0.787 | 0.759 | 0.556 | 0.706 | 0.419
14 | H3255 | 1.03 | 0.925 | 0.896 | 0.911 | 0.875
15 | HARA | 0.969 | 0.939 | 0.832 | 0.427 | 0.326
16 | HCC-15 | 1.05 | 1.01 | – | 0.669 | 0.285
17 | HCC-44 | 1 | 0.941 | 0.907 | 0.915 | 0.733
18 | HCC-78 | 0.934 | 1.02 | 1.01 | 0.68 | 0.667
19 | HCC-366 | 0.997 | 0.936 | – | 1.03 | 0.676
20 | HCC-827 | 1.09 | 0.988 | 1.07 | 1.14 | 0.958

Row | Cell Line | relative viability (0.04 µM) | relative viability (0.1265 µM) | relative viability (0.4 µM) | relative viability (1.265 µM) | relative viability (4 µM)
21 | HOP-62 | 1.04 | 0.986 | 0.921 | 0.595 | 0.567
22 | IA-LM | 0.767 | 0.916 | 0.913 | 0.468 | 0.129
23 | LC-2-ad | 1.01 | 0.823 | 0.662 | 0.603 | 0.66
24 | LCLC-97TM1 | 0.911 | 0.889 | 0.797 | 0.499 | 0.541
25 | LCLC-103H | 0.939 | 0.924 | 0.981 | 0.783 | 0.805
26 | LK-2 | 0.908 | 0.983 | 0.821 | 0.588 | 0.705
27 | LOU-NH91 | 0.855 | 0.924 | – | 0.733 | 0.797
28 | LU99A | 1.03 | 0.933 | 0.802 | 0.77 | 0.394
29 | LXF-289 | 1.06 | 0.977 | 0.773 | 0.93 | 0.672
30 | NCI-H23 | 0.82 | 0.854 | 0.198 | 0.411 | 0.271
31 | NCI-H322M | 0.814 | 0.517 | 0.728 | 0.727 | 0.605
32 | NCI-H358 | 1.01 | 0.835 | 0.595 | 0.805 | 0.266
33 | NCI-H441 | 1.19 | 1.01 | – | 1.04 | 0.676
34 | NCI-H460 | 1.03 | 0.972 | 0.858 | 0.886 | 0.342
35 | NCI-H520 | 0.872 | 1.06 | 0.874 | 1.25 | 0.898
36 | NCI-H522 | 0.796 | 0.876 | 0.738 | 0.614 | 0.666
37 | NCI-H596 | 0.916 | 0.901 | 0.943 | 0.525 | 0.578
38 | NCI-H647 | 0.814 | 0.884 | 0.494 | 0.652 | 0.426
39 | NCI-H650 | 0.781 | 0.925 | 1.04 | 0.872 | 0.974
40 | NCI-H661 | 1.01 | 1.02 | 0.947 | 1.04 | 0.724
